Key:
BRD4 BrD1 = BRD4 BrD1 (Homo sapiens, UniProt O60885); assay: Fluorescence anisotropy competition binding assay; conditions: for binding activity toward BRD4 BrD1 (in words): fluorescence anisotropy/polarization assay; for Lipophilic Ligand Efficiency: against BRD4-BrD1, LLE = pKi – ClogP
BRD4 BrD2 = BRD4 BrD2 (Homo sapiens, UniProt O60885); assay: Fluorescence anisotropy competition binding assay, BRD4 BrD2

COc1c(C)cc(/N=N/c2ccc(S(=O)(=O)Nc3ccccn3)cc2)cc1C [Compound 37, (E)-4-((4-methoxy-3,5-dimethylphenyl)diazenyl)-N-(pyridin-2-yl)benzenesulfonamide]
binding activity toward BRD4 BrD1 (in words) (BRD4 BrD1): completely lost binding activity

Cc1cc(/N=N/c2cc(S(=O)(=O)O)c(C)cc2C)c(N)cc1O [Compound 1, (E)-5-((2-amino-4-hydroxy-5-methylphenyl)diazenyl)-2,4-dimethylbenzenesulfonic acid]
binding activity toward BRD4 BrD1 (in words) (BRD4 BrD1): modest activity

Cc1cc(C)c(S(=O)(=O)O)cc1/N=N/c1cc(C)c(O)c(C)c1 [Compound 2, (E)-5-(3,5-dimethyl-4-hydroxyphenylazo)-2,4-dimethylbenzenesulfonic acid]
improvement in binding affinity to the BRD4 BrDs over MS120 (1) (BRD4 BrD1; vs MS120 (1), both BRD4 BrDs): 2–3 fold

Cc1cc(/N=N/c2ccc(S(=O)(=O)NCc3ccc(C(F)(F)F)cc3)cc2)ccc1O [Compound 35, (E)-4-((4-hydroxy-3-methylphenyl)diazenyl)-N-(4-(trifluoromethyl)benzyl)benzenesulfon-amide]
binding activity toward BRD4 BrD1 (in words) (BRD4 BrD1): deteriorated drastically

Cc1cc(/N=N/c2ccc(S(=O)(=O)Nc3ccccn3)cc2)nc(C)c1O [Compound 31, (E)-4-((5-hydroxy-4,6-dimethylpyridin-2-yl)diazenyl)-N-(pyridin-2-yl)benzenesulfonamide]
loss in activity/affinity toward BRD4 BrD1 vs MS435 (BRD4 BrD1; vs MS435): 3 fold

Cc1cc(/N=N/c2ccc(S(=O)(=O)N(C)c3ccccn3)cc2)cc(C)c1O [Compound 6, (E)-4-((4-hydroxy-3,5-dimethylphenyl)diazenyl)-N-methyl-N-(pyridin-2-yl)benzenesul-fonamide]
loss in activity/affinity toward BRD4 BrD1 vs MS435 (BRD4 BrD1; vs MS435): 9 fold

CC(=O)Nc1c(C)cc(/N=N/c2ccc(S(=O)(=O)Nc3ccccn3)cc2)cc1C [Compound 38, (E)-N-(2,6-dimethyl-4-((4-(N-(pyridin-2-yl)sulfamoyl)phenyl)diazenyl)phenyl)acetamide]
binding activity toward BRD4 BrD1 (in words) (BRD4 BrD1): completely lost binding activity

Cc1cc(/N=N/c2ccc(S(=O)(=O)NCc3ccc(C(F)(F)F)cc3)cc2)cc(C)c1O [Compound 5, (E)-4-((4-hydroxy-3,5-dimethylphenyl)diazenyl)-N-(4-(trifluoromethyl)benzyl)benzenesul-fonamide]
binding activity toward BRD4 BrD1 (in words) (BRD4 BrD1): deteriorated drastically

Cc1cc(/N=N/c2cccc(S(=O)(=O)Nc3ccccn3)c2)cc(C)c1O [Compound 3, (E)-3-((4-hydroxy-3,5-dimethylphenyl)diazenyl)-N-(pyridin-2-yl)benzenesulfonamide]
binding activity toward BRD4 BrD1 (in words) (BRD4 BrD1): retained the affinity of 2

Cc1cc(/N=N/c2ccc(S(=O)(=O)NCc3ccc(C(F)(F)F)cc3)cc2)c(N)cc1O [Compound 36, (E)-4-((2-amino-4-hydroxy-5-methylphenyl)diazenyl)-N-(4-(trifluoromethyl)benzyl)benzene sulfonamide]
binding activity toward BRD4 BrD1 (in words) (BRD4 BrD1): deteriorated drastically

CC(C)c1cc(/N=N/c2ccc(S(=O)(=O)Nc3ccccn3)cc2)cc(C(C)C)c1O [Compound 41, (E)-4-((4-hydroxy-3,5-diisopropylphenyl)diazenyl)-N-(pyridin-2-yl)benzenesulfonamide]
binding activity toward BRD4 BrD1 (in words) (BRD4 BrD1): almost completely lost their activities

Cc1cc(/N=N/c2ccc(S(=O)(=O)Nc3ccccn3)cc2)cc(C)c1O [Compound 4, (E)-4-((4-hydroxy-3,5-dimethylphenyl)diazenyl)-N-(pyridin-2-yl)benzenesulfonamide]
Lipophilic Ligand Efficiency (BRD4 BrD1): 0.78 | improvement of affinity for the BRD4 BrD1 vs compound 3 (BRD4 BrD1; vs 3): over 6 fold

Cc1cc(/N=N/c2ccc(S(=O)(=O)Nc3ccc(C(=O)O)cn3)cc2)cc(C)c1O [Compound 9, (E)-6-(4-((4-hydroxy-3,5-dimethylphenyl)diazenyl)phenylsulfonamido)nicotinic acid]
better affinity/potency toward BRD4 BrD1 than MS435 (BRD4 BrD1; vs MS435): about 3 fold

CC(C)c1cc(/N=N/c2ccc(S(=O)(=O)Nc3ccccn3)cc2)ccc1O [Compound 39, (E)-4-((4-hydroxy-3-isopropylphenyl)diazenyl)-N-(pyridin-2-yl)benzenesulfonamide]
loss in activity/affinity toward BRD4 BrD1 vs MS435 (BRD4 BrD1; vs MS435): about 10 fold

COc1ccc(NS(=O)(=O)c2ccc(/N=N/c3cc(C)c(O)c(C)c3)cc2)nc1 [Compound 12, (E)-4-((4-hydroxy-3,5-dimethylphenyl)diazenyl)-N-(5-methoxypyridin-2-yl)benzenesulfon-amide]
improvement in binding affinity to the BRD4 BrD1 by nitrogen in the C ring (BRD4 BrD1; 12 vs. 13): 13 fold | selectivity for the BrD1 over the BrD2 of BRD4 (BRD4 BrD1; ratio of binding affinities): 4 fold | increase in binding affinity for the BRD4 BrD2 by nitrogen in the C ring (BRD4 BrD2; 12 vs. 13): 3 fold

COc1cc(/N=N/c2ccc(S(=O)(=O)Nc3ccccn3)cc2)c(N)cc1O [Compound 30, (E)-4-((2-amino-4-hydroxy-5-methoxyphenyl)diazenyl)-N-(pyridin-2-yl)benzenesulfon-amide]
reduction in binding affinity to the BRD4 BrD1 vs MS436 (BRD4 BrD1): 15 fold | reduction in binding affinity to the BRD4 BrD2 vs MS436 (BRD4 BrD2): 15 fold

Cc1nc(/N=N/c2ccc(S(=O)(=O)Nc3ccccn3)cc2)c(C)c(C)c1O [Compound 32, (E)-4-((5-hydroxy-3,4,6-trimethylpyridin-2-yl)diazenyl)-N-(pyridin-2-yl)benzenesulfon-amide]
loss in activity/affinity toward BRD4 BrD1 vs MS435 (BRD4 BrD1; vs MS435): 3 fold

Cc1cc(/N=N/c2ccc(S(=O)(=O)Nc3ccccn3)cc2)c(N)c(C)c1O [Compound 28, (E)-4-((2-amino-4-hydroxy-3,5-dimethylphenyl)diazenyl)N-(pyridin-2-yl)benzenesulfon-amide]
Lipophilic Ligand Efficiency (BRD4 BrD1): 2.77 | reduction in binding affinity to the BRD4 BrD1 vs MS436 (BRD4 BrD1): about 2 fold

CC(C)(C)c1cc(/N=N/c2ccc(S(=O)(=O)Nc3ccccn3)cc2)cc(C(C)(C)C)c1O [Compound 42, (E)-4-((3,5-di-tert-butyl-4-hydroxyphenyl)diazenyl)-N-(pyridin-2-yl)benzenesulfonamide]
binding activity toward BRD4 BrD1 (in words) (BRD4 BrD1): almost completely lost their activities

Cc1cc(/N=N/c2cccc(S(=O)(=O)Nc3ccccn3)c2)c(N)cc1O [Compound 51, (E)-3-((2-amino-4-hydroxy-5-methylphenyl)diazenyl)-N-(pyridin-2-yl)benzenesulfonamide]
reduction in binding affinity to the BRD4 BrD1 vs MS436 (BRD4 BrD1): 10 fold | reduction in binding affinity to the BRD4 BrD2 vs MS436 (BRD4 BrD2): 3 fold

CC(C)(C)c1cc(/N=N/c2ccc(S(=O)(=O)Nc3ccccn3)cc2)ccc1O [Compound 40, (E)-4-((3-(tert-butyl)-4-hydroxyphenyl)diazenyl)-N-(pyridin-2-yl)benzenesulfonamide]
loss in activity/affinity toward BRD4 BrD1 vs MS435 (BRD4 BrD1; vs MS435): about 10 fold

Source: publication PMC3894848 (Journal of medicinal chemistry, 2013)
